{"source": "ChEMBL document CHEMBL1150522", "about": "“Preparation and antifungal activity of fusacandin analogs: C-6 sidechain esters” (1996)", "type_in_all_cases": "functional", "key": {"Candida albicans [1]": {"system": "Candida albicans", "test": "Minimum inhibitory concentration against Candida albicans (CCH 442) in the presence of serum"}, "Candida albicans [2]": {"system": "Candida albicans", "test": "Minimum inhibitory concentration against Candida albicans (ATCC 10231) in the absence of serum."}, "Candida albicans [3]": {"system": "Candida albicans", "test": "Minimum inhibitory concentration against Candida albicans (ATCC 10231) in the presence of serum"}, "Candida albicans [4]": {"system": "Candida albicans", "test": "Minimum inhibitory concentration against Candida albicans (ATCC 38247) in the absence of serum."}, "Candida albicans [5]": {"system": "Candida albicans", "test": "Minimum inhibitory concentration against Candida albicans (ATCC 38247) in the presence of serum"}, "Candida albicans [6]": {"system": "Candida albicans", "test": "Minimum inhibitory concentration against Candida albicans (ATCC 62376) in the absence of serum."}, "Candida albicans [7]": {"system": "Candida albicans", "test": "Minimum inhibitory concentration against Candida albicans (ATCC 62376) in the presence of serum"}, "Candida albicans [8]": {"system": "Candida albicans", "test": "Minimum inhibitory concentration against Candida albicans (CCH 442) in the absence of serum."}, "Candida albicans [9]": {"system": "Candida albicans", "test": "Minimum inhibitory concentration against Candida albicans (579a) in the absence of serum."}, "Candida albicans [10]": {"system": "Candida albicans", "test": "Minimum inhibitory concentration against Candida albicans (579a) in the presence of serum"}}, "data": [{"smiles": "CCCCC/C=C/C=C/[C@@H](O)C/C=C/C=C/C(=O)O[C@@H]1[C@@H](O)[C@H](c2c(O)cc(O)cc2CO)O[C@H](CO)[C@H]1O[C@@H]1O[C@H](COC(=O)c2ccc(Oc3ccccc3)cc2)[C@H](O)[C@H](O)[C@H]1O[C@@H]1O[C@H](CO)[C@H](O)[C@H](O)[C@H]1O", "values": [{"measurement": "MIC", "setting": "Candida albicans [1]", "result": 3.12, "unit": "µg/mL"}, {"measurement": "MIC", "setting": "Candida albicans [2]", "result": 50, "unit": "µg/mL"}, {"measurement": "MIC", "setting": "Candida albicans [3]", "result": 3.12, "unit": "µg/mL"}, {"measurement": "MIC", "setting": "Candida albicans [4]", "result": 50, "unit": "µg/mL"}, {"measurement": "MIC", "setting": "Candida albicans [5]", "result": 3.12, "unit": "µg/mL"}, {"measurement": "MIC", "setting": "Candida albicans [6]", "result": "> 100", "unit": "µg/mL"}, {"measurement": "MIC", "setting": "Candida albicans [7]", "result": 3.12, "unit": "µg/mL"}, {"measurement": "MIC", "setting": "Candida albicans [8]", "result": 100, "unit": "µg/mL"}, {"measurement": "MIC", "setting": "Candida albicans [9]", "result": 50, "unit": "µg/mL"}, {"measurement": "MIC", "setting": "Candida albicans [10]", "result": 1.56, "unit": "µg/mL"}]}, {"smiles": "CCCCC/C=C/C=C/[C@@H](O)C/C=C/C=C/C(=O)O[C@@H]1[C@@H](O)[C@H](c2c(O)cc(O)cc2CO)O[C@H](CO)[C@H]1O[C@@H]1O[C@H](COC(C)=O)[C@H](O)[C@H](O)[C@H]1O[C@@H]1O[C@H](CO)[C@H](O)[C@H](O)[C@H]1O", "values": [{"measurement": "MIC", "setting": "Candida albicans [1]", "result": "> 100", "unit": "µg/mL"}, {"measurement": "MIC", "setting": "Candida albicans [2]", "result": "> 100", "unit": "µg/mL"}, {"measurement": "MIC", "setting": "Candida albicans [3]", "result": "> 100", "unit": "µg/mL"}, {"measurement": "MIC", "setting": "Candida albicans [4]", "result": "> 100", "unit": "µg/mL"}, {"measurement": "MIC", "setting": "Candida albicans [5]", "result": "> 100", "unit": "µg/mL"}, {"measurement": "MIC", "setting": "Candida albicans [6]", "result": "> 100", "unit": "µg/mL"}, {"measurement": "MIC", "setting": "Candida albicans [7]", "result": "> 100", "unit": "µg/mL"}, {"measurement": "MIC", "setting": "Candida albicans [8]", "result": "> 100", "unit": "µg/mL"}, {"measurement": "MIC", "setting": "Candida albicans [9]", "result": "> 100", "unit": "µg/mL"}, {"measurement": "MIC", "setting": "Candida albicans [10]", "result": "> 100", "unit": "µg/mL"}]}, {"smiles": "CCCCC/C=C/C=C/[C@@H](O)C/C=C/C=C/C(=O)O[C@@H]1[C@@H](O)[C@H](c2c(O)cc(O)cc2CO)O[C@H](CO)[C@H]1O[C@@H]1O[C@H](COC(=O)c2ccc(-c3ccc(OCc4ccccc4)cc3)cc2)[C@H](O)[C@H](O)[C@H]1O[C@@H]1O[C@H](CO)[C@H](O)[C@H](O)[C@H]1O", "values": [{"measurement": "MIC", "setting": "Candida albicans [1]", "result": 3.12, "unit": "µg/mL"}, {"measurement": "MIC", "setting": "Candida albicans [2]", "result": 50, "unit": "µg/mL"}, {"measurement": "MIC", "setting": "Candida albicans [3]", "result": 1.56, "unit": "µg/mL"}, {"measurement": "MIC", "setting": "Candida albicans [4]", "result": 25, "unit": "µg/mL"}, {"measurement": "MIC", "setting": "Candida albicans [5]", "result": 3.12, "unit": "µg/mL"}, {"measurement": "MIC", "setting": "Candida albicans [6]", "result": 25, "unit": "µg/mL"}, {"measurement": "MIC", "setting": "Candida albicans [7]", "result": 1.56, "unit": "µg/mL"}, {"measurement": "MIC", "setting": "Candida albicans [8]", "result": 12.5, "unit": "µg/mL"}, {"measurement": "MIC", "setting": "Candida albicans [9]", "result": 50, "unit": "µg/mL"}, {"measurement": "MIC", "setting": "Candida albicans [10]", "result": 0.78, "unit": "µg/mL"}]}, {"smiles": "CCCCC/C=C/C=C/[C@@H](O)C/C=C/C=C/C(=O)O[C@@H]1[C@@H](O)[C@H](c2c(O)cc(O)cc2CO)O[C@H](CO)[C@H]1O[C@@H]1O[C@H](COC(=O)c2ccc(CCCC)cc2)[C@H](O)[C@H](O)[C@H]1O[C@@H]1O[C@H](CO)[C@H](O)[C@H](O)[C@H]1O", "values": [{"measurement": "MIC", "setting": "Candida albicans [1]", "result": 3.12, "unit": "µg/mL"}, {"measurement": "MIC", "setting": "Candida albicans [2]", "result": "> 100", "unit": "µg/mL"}, {"measurement": "MIC", "setting": "Candida albicans [3]", "result": 3.12, "unit": "µg/mL"}, {"measurement": "MIC", "setting": "Candida albicans [4]", "result": "> 100", "unit": "µg/mL"}, {"measurement": "MIC", "setting": "Candida albicans [5]", "result": 1.56, "unit": "µg/mL"}, {"measurement": "MIC", "setting": "Candida albicans [6]", "result": "> 100", "unit": "µg/mL"}, {"measurement": "MIC", "setting": "Candida albicans [7]", "result": 1.56, "unit": "µg/mL"}, {"measurement": "MIC", "setting": "Candida albicans [8]", "result": "> 100", "unit": "µg/mL"}, {"measurement": "MIC", "setting": "Candida albicans [9]", "result": "> 100", "unit": "µg/mL"}, {"measurement": "MIC", "setting": "Candida albicans [10]", "result": 0.78, "unit": "µg/mL"}]}]}
